From the NIST ThermoML archive (doi:10.1016/j.jct.2007.08.005)
Numbers after ± are expanded uncertainties.

Experiment: xn = mol fraction of the nth substance listed
Conditions: 308.15 K, 101 kPa, Liquid; for excess molar volume: Direct dilatometry; for speed of sound: Sing-around technique in a fixed-path interferometer

OCCCO [propan-1,3-diol] + O=C1CCCN1
Conditions | excess molar volume [m3/mol] | speed of sound [m/s] | viscosity [mPa·s]
x1 = 0.0149 | 7e-09 ± 5e-09 | – | –
x1 = 0.0255 | 1e-08 ± 5e-09 | – | –
x1 = 0.0365 | – | 1600.9 ± 1.4 | 9.37 ± 0.18
x1 = 0.0582 | 1.6e-08 ± 5e-09 | – | –
x1 = 0.059 | – | 1601.4 ± 1.4 | 9.712 ± 0.19
x1 = 0.0669 | 1.8e-08 ± 5e-09 | – | –
x1 = 0.0794 | – | 1602.1 ± 1.4 | 9.969 ± 0.19
x1 = 0.0811 | 1.9e-08 ± 5e-09 | – | –
x1 = 0.0944 | 1.9e-08 ± 5e-09 | – | –
x1 = 0.1005 | – | 1602.7 ± 1.4 | 10.29 ± 0.2
x1 = 0.1161 | 2.2e-08 ± 5e-09 | – | –
x1 = 0.133 | 2.3e-08 ± 5e-09 | – | –
x1 = 0.1451 | – | 1603.5 ± 1.4 | –
x1 = 0.1452 | – | – | 10.9 ± 0.21
x1 = 0.1507 | 2.5e-08 ± 5e-09 | – | –
x1 = 0.1752 | 2.6e-08 ± 5e-09 | – | –
x1 = 0.1944 | – | 1604.5 ± 1.4 | 11.58 ± 0.22
x1 = 0.2346 | 2.7e-08 ± 5e-09 | – | –
x1 = 0.2749 | 2.8e-08 ± 5e-09 | – | –
x1 = 0.3004 | – | 1606.2 ± 1.4 | –
x1 = 0.3005 | – | – | 13.29 ± 0.25
x1 = 0.3232 | 2.9e-08 ± 5e-09 | – | –
x1 = 0.399 | 2.8e-08 ± 5e-09 | – | –
x1 = 0.3994 | – | 1607.4 ± 1.4 | 15.04 ± 0.28
x1 = 0.4472 | 2.5e-08 ± 5e-09 | – | –
x1 = 0.4784 | 2.5e-08 ± 5e-09 | – | –
x1 = 0.4826 | 2.4e-08 ± 5e-09 | – | –
x1 = 0.4902 | – | 1608.2 ± 1.4 | 16.76 ± 0.3
x1 = 0.4941 | 2.4e-08 ± 5e-09 | – | –
x1 = 0.518 | 2.2e-08 ± 5e-09 | – | –
x1 = 0.537 | 2.1e-08 ± 5e-09 | – | –
x1 = 0.5552 | 2.1e-08 ± 5e-09 | – | –
x1 = 0.5751 | 1.8e-08 ± 5e-09 | – | –
x1 = 0.5828 | – | 1608.7 ± 1.4 | 18.38 ± 0.33
x1 = 0.6011 | 1.5e-08 ± 5e-09 | – | –
x1 = 0.6281 | 1.3e-08 ± 5e-09 | – | –
x1 = 0.6505 | 1e-08 ± 5e-09 | – | –
x1 = 0.6707 | 9e-09 ± 5e-09 | – | –
x1 = 0.6824 | 8e-09 ± 5e-09 | – | –
x1 = 0.6833 | – | 1608.8 ± 1.4 | 20.23 ± 0.36
x1 = 0.7028 | 4e-09 ± 5e-09 | – | –
x1 = 0.7232 | 1e-09 ± 5e-09 | – | –
x1 = 0.746 | -2e-09 ± 5e-09 | – | –
x1 = 0.7719 | -4e-09 ± 5e-09 | – | –
x1 = 0.7889 | – | 1608.3 ± 1.4 | 22.45 ± 0.4
x1 = 0.791 | -6e-09 ± 5e-09 | – | –
x1 = 0.8126 | -8e-09 ± 5e-09 | – | –
x1 = 0.8237 | -1e-08 ± 5e-09 | – | –
x1 = 0.8265 | – | 1607.7 ± 1.4 | 23.24 ± 0.41
x1 = 0.8409 | -1.3e-08 ± 5e-09 | – | –
x1 = 0.853 | -1.6e-08 ± 5e-09 | – | –
x1 = 0.8712 | -1.9e-08 ± 5e-09 | – | –
x1 = 0.8823 | -2.1e-08 ± 5e-09 | – | –
x1 = 0.8909 | – | 1606.7 ± 1.4 | 24.43 ± 0.43
x1 = 0.8935 | -2.2e-08 ± 5e-09 | – | –
x1 = 0.9116 | -2.4e-08 ± 5e-09 | – | –
x1 = 0.9186 | – | 1606.4 ± 1.4 | 24.98 ± 0.44
x1 = 0.9269 | -2.4e-08 ± 5e-09 | – | –
x1 = 0.9355 | -2.3e-08 ± 5e-09 | – | –
x1 = 0.9422 | – | 1605.8 ± 1.4 | 25.52 ± 0.45
x1 = 0.9476 | -2.2e-08 ± 5e-09 | – | –
x1 = 0.9599 | -2e-08 ± 5e-09 | – | –
x1 = 0.9712 | – | 1605 ± 1.4 | 26.02 ± 0.46
x1 = 0.9803 | -1.4e-08 ± 5e-09 | – | –
x1 = 0.9887 | -1.2e-08 ± 5e-09 | – | –
x1 = 0.9978 | -8e-09 ± 5e-09 | – | –
